The record followed here is PMC12036747, “Effects of galloflavin and ellagic acid on sirtuin 6 and its anti-tumorigenic activities” (Biomedicine & pharmacotherapy = Biomedecine & …, 2020).

What all share (assay type): biochemical
One experiment concerns the target T1, SIRT3 (Homo sapiens, UniProt Q9NTG7).
T1 sequence (Q9NTG7 102-399): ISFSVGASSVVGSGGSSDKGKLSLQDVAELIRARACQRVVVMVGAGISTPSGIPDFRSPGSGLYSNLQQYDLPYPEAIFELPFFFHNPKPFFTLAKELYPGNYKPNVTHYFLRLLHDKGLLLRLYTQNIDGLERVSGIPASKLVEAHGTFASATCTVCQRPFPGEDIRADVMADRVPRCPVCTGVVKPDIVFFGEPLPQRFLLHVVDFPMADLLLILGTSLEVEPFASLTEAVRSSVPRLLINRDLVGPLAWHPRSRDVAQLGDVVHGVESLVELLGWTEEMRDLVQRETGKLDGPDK
The experiment can be described thus: Fluor de Lys deacetylation assay, moderate inhibition at […].

The next experiment has as its target T2, SIRT1 (Homo sapiens, UniProt Q96EB6).
T2 sequence (Q96EB6 2-747): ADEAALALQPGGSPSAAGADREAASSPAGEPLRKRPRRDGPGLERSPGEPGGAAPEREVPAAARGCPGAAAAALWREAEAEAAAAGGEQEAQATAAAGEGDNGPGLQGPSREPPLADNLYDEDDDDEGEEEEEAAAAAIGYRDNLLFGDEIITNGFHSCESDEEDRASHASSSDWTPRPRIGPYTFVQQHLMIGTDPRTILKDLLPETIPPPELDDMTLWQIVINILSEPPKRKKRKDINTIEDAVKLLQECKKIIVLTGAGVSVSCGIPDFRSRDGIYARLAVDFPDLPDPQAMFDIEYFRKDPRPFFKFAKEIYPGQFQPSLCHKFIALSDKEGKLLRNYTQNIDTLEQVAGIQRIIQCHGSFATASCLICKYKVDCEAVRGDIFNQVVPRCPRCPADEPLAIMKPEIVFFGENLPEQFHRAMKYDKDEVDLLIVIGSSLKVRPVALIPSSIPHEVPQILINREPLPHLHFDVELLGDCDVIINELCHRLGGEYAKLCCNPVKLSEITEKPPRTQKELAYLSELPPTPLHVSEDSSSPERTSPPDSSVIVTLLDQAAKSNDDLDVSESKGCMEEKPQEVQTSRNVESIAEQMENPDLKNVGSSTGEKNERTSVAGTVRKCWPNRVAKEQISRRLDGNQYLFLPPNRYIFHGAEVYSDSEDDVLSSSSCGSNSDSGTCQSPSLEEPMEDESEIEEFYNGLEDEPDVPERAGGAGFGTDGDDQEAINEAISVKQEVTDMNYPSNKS
Described as above.

Experiment [1] concerns the target T3, Sirtuin 6 (SIRT6) (Homo sapiens, UniProt Q8N6T7).
T3 construct: recombinant GST-tagged human SIRT6
The experiment can be described thus: HPLC deacetylation assay with H3K9Ac peptide (activation); immunoblot with core histones.

The target in a further experiment is T4, SIRT2 (Homo sapiens, UniProt Q8IXJ6).
T4 sequence (Q8IXJ6 2-389): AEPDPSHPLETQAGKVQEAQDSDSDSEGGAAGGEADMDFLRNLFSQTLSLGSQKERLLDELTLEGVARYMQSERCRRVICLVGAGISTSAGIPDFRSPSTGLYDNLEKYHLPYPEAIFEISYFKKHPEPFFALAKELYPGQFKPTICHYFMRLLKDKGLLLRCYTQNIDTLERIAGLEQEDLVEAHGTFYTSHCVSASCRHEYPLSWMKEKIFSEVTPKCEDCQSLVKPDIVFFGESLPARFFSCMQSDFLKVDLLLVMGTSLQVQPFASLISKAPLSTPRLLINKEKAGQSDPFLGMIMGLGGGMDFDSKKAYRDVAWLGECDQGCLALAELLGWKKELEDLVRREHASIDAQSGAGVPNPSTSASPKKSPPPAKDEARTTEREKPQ
The experiment can be described thus: Fluor de Lys deacetylation assay, inhibition at […].

For experiment [2], the target named is T3, Sirtuin 6 (SIRT6). The experiment is described as follows: HPLC deacetylation assay with H3K9Ac peptide (activation); immunoblot with core histones; Michaelis-Menten kinetics.

T3 sequence (Q8N6T7 2-355): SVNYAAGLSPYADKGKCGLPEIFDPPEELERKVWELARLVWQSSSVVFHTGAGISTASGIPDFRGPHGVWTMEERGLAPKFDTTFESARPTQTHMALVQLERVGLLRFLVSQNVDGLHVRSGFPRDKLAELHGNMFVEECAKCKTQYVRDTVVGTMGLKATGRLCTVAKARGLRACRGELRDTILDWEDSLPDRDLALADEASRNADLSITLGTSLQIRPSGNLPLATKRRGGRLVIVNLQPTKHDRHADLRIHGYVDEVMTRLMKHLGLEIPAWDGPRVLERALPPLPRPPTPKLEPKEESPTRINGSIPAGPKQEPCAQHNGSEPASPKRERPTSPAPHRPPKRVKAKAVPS

On to `O=c1oc2c(cc1O)oc(=O)c1cc(O)c(O)c(O)c12` [Galloflavin], for which the “Fluor de Lys deacetylation assay, moderate inhibition at 100 μM” value at SIRT3 is “Galloflavin and Ellagic acid displayed moderate inhibition against SIRT1 and SIRT3”; at SIRT1, “Galloflavin and Ellagic acid displayed moderate inhibition against SIRT1 and SIRT3”. For the same compound, a half-maximal effect on Sirtuin 6 (SIRT6) [1] (EC50) was put at 79 µM. For the same compound, the “%” value at SIRT2 is given as “up to 60 % inhibition at 100 μM”.

As to `O=c1oc2c(O)c(O)cc3c(=O)oc4c(O)c(O)cc1c4c23` [Ellagic acid], the “Fluor de Lys deacetylation assay, moderate inhibition at 100 μM” value on SIRT3 was “Galloflavin and Ellagic acid displayed moderate inhibition against SIRT1 and SIRT3”; at SIRT1, “Galloflavin and Ellagic acid displayed moderate inhibition against SIRT1 and SIRT3”. The EC50 (as a rule, the concentration at which the effect is half-maximal) on Sirtuin 6 (SIRT6) [2] is 25 µM. Further, on SIRT2, the “%” value is reported as “up to 60 % inhibition at 100 μM”.
